In PMC9100525, “CsCuAOs and CsAMADH1 Are Required for Putrescine-Derived γ-Aminobutyric Acid Accumulation in Tea” (Foods, 2022):

Experiments:
Format in all cases: biochemical
CsAMADH1 = target: T1, CsAMADH1 (Camellia sinensis, UniProt I7F760); assay: NADH formation at […] nm; Lineweaver-Burk; settings: 0.1 M potassium phosphate pH 8.0; 0.001 M NAD+ as co-substrate; unit "Mm" [sic] (substrate range 0.1-100 mM)
T1 construct: recombinant GST fusion, pGEX-4T-1, purified; plastid-localized; gene from Tea Plant Information Archive, locus id not given
T1 sequence (I7F760 1-505): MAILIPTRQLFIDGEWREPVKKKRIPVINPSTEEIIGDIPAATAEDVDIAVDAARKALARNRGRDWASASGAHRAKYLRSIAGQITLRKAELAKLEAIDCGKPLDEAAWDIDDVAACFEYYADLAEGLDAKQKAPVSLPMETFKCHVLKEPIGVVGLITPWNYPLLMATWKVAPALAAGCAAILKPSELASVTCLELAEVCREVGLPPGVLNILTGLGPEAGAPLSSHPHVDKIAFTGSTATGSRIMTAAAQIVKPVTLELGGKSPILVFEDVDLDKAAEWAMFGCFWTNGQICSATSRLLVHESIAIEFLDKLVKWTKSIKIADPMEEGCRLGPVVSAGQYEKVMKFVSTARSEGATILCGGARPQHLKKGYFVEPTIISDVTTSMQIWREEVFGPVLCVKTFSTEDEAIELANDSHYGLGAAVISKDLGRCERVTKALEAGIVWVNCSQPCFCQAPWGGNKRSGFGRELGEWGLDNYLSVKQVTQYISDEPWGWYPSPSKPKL

CsCuAO1 = target: T2, CsCuAO1 (Camellia sinensis, UniProt A0A4S4D8A3); assay: peroxidase-coupled 4-aminoantipyrine/N,N-dimethylaniline assay at […] nm; Lineweaver-Burk; settings: 0.1 M potassium phosphate pH 6.5; O2 co-substrate; unit "Mm" [sic] (substrate range 0.1-100 mM)
T2 construct: gene TEA_026770; recombinant GST fusion, pGEX-4T-1, purified; peroxisomal; copper/TPQ enzyme, CuAOs stated as homodimer in general; gene from Tea Plant Information Archive, locus id not given
T2 sequence (A0A4S4D8A3 1-662): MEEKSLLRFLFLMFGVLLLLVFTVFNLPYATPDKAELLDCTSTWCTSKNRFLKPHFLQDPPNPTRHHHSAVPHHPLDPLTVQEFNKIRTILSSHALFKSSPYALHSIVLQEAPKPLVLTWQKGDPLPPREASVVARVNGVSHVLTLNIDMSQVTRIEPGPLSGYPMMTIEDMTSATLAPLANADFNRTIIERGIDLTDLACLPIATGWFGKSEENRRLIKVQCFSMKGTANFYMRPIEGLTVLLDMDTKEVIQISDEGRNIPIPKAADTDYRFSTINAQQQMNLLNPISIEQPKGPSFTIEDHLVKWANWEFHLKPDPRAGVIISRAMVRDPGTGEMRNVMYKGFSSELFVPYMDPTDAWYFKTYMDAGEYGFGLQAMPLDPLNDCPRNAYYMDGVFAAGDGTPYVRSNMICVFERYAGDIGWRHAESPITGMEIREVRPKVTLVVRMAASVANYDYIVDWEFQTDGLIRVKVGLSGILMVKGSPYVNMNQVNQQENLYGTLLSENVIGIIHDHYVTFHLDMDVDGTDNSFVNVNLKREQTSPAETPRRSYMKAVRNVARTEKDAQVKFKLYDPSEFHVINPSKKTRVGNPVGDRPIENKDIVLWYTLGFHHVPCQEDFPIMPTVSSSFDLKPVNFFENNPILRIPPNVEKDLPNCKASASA

CsCuAO3 = target: T3, CsCuAO3 (Camellia sinensis, UniProt A0A4S4DQ49); assay: as above; settings: 0.1 M potassium phosphate pH 6.5; O2 co-substrate; unit "Mm" [sic] (substrate range 0.1-100 mM)
T3 construct: gene TEA_013658; recombinant GST fusion, pGEX-4T-1, purified; peroxisomal; copper/TPQ enzyme, CuAOs stated as homodimer in general; gene from Tea Plant Information Archive, locus id not given
T3 sequence (A0A4S4DQ49 1-679): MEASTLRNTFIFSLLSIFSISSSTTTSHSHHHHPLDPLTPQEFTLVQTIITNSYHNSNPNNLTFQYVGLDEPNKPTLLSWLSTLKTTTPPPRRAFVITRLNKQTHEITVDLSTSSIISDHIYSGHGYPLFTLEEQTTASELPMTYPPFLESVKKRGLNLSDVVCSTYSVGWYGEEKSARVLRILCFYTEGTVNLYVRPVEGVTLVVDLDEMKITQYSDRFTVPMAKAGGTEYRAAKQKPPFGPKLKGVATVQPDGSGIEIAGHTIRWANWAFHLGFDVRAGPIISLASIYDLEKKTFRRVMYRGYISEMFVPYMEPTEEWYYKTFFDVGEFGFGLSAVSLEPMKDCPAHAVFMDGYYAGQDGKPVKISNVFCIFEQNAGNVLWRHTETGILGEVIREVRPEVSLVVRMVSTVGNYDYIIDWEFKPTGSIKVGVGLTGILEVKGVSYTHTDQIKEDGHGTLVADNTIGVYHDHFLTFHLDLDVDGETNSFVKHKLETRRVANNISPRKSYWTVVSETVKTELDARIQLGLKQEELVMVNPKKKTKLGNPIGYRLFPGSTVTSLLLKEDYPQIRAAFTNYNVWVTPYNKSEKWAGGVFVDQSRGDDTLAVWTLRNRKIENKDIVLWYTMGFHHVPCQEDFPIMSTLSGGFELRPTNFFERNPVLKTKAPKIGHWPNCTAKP

Km (CsAMADH1) [Mm]	Km (CsCuAO1) [Mm]	Km (CsCuAO3) [Mm]	SMILES
25.7			NCCCC=O [4-ABAL]
	21.9	15.8	NCCCCN [putrescine]
